Data on 4 compounds can be found in patent US12227516B1, “Selective COX-2 inhibition of 2-(substituted benzyl)-3,5,6,7-tetrahydro-4H-cyclopenta[4,5]thieno[2,3-d]pyrimidin-4-ones and 4-fluoro-n-(4-oxo-3,5,6,7-tetrahydro-4H-cyclopenta[4,5]thieno[2,3-d]pyrimidin-2-yl)benzamide as anti-inflammatory agents” (KING FAISAL UNIVERSITY, priority 2023, dated 2025).

Assay [1] concerns the target T1, ovine COX-1 (Ovis aries, UniProt P05979).
T1 sequence (P05979 25-600): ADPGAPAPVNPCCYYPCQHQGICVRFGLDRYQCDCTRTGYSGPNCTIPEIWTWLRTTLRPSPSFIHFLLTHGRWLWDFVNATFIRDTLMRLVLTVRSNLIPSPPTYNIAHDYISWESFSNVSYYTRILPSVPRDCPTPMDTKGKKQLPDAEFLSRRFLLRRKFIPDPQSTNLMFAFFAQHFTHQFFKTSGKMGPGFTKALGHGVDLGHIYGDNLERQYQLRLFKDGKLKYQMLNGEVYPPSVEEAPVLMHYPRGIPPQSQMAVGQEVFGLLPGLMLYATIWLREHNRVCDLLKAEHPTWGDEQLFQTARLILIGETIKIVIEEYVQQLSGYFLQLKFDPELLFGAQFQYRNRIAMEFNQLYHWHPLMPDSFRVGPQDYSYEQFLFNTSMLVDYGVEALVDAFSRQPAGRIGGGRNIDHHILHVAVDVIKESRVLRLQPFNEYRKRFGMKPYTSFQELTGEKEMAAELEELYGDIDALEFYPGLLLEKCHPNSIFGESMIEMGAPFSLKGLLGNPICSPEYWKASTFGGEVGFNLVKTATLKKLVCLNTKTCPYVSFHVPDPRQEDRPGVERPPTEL
In words: COX (ovine) Inhibitor Screening Assay, COX-1. The class given is biochemical. The settings on record: PGF2α by EIA, 18 hours of incubation. The method, then: (§1) The COX (ovine) Inhibitor Screening Assay was performed mainly to determine the selective inhibition of tested compounds (6, 7, 8 and 9) towards the ovine COX-1 and human recombinant COX-2 isoenzymes. Adding arachidonic acid (AA) helped convert the COX component into PGG2, followed by a reduction of PGG2 into PGH2. The following addition of SnCl2 converted PGH2 into PGF2α. The assay directly measures the PGF2α via enzyme immunoassay (EIA) using a broadly specific antiserum that is bound to all PG tracers. Depending on the tested compounds inhibitory effect, the concentration of PGF2α in each well varied and was inversely proportional to the amount of PG tracers that were able to bind to the antiserum. PG tracers-antiserum complex was left to bind to the mouse monoclonal anti-rabbit antibody that had been coated to the well during the 18 hours of incubation. Ellman's reagent was added to give distinct yellow coloration to the products from this enzymatic reaction, which absorbed strongly at 412 nm. The intensity of the color was proportional to the amount of PG tracers-antiserum complex bound to the well, which was inversely proportional to the concentration of PGF2α present.
(§2) The inhibitory activity of tested compounds was determined based on IC50 values, whereas the selectivity was based on their selectivity indices (SI), which are defined as COX-1 IC50/COX-2 IC50. In the assay system, indomethacin was used as a non-selective COX inhibitor standard, while NS-398 was used as a COX-2 selective inhibitor standard.

Assay [2] deals with T2, human recombinant COX-2 (Homo sapiens, UniProt P35354).
T2 sequence (P35354 18-604): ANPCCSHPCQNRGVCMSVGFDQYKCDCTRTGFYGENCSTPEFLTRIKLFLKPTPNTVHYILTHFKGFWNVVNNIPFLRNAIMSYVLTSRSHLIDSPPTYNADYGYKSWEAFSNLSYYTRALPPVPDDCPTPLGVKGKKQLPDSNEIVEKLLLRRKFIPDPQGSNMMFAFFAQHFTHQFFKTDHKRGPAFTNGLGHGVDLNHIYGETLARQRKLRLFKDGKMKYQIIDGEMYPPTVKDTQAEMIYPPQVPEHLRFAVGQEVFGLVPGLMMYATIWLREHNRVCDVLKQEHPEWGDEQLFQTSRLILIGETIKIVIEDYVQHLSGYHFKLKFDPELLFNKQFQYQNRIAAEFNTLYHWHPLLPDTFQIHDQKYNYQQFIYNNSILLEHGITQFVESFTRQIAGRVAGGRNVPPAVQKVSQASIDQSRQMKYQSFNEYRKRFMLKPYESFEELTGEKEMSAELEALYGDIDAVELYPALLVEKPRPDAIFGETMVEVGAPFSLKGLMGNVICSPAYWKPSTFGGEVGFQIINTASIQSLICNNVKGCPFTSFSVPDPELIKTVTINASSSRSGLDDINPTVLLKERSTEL
In words: COX (ovine) Inhibitor Screening Assay, COX-2. The class given is biochemical. The note with it: for IC50: human recombinant COX-2, PGF2α by EIA, 18 hours of incubation; for selectivity of inhibition, COX-2 versus COX-1, in words: ovine COX-1 versus human recombinant COX-2. The method, then: as §1, §2

What is called IC50 is the concentration that inhibits the measured activity by half. In assay [1], `COc1ccc(Cc2nc3sc4c(c3c(=O)[nH]2)CCC4)cc1` [Compound 7, 2-(4-Methoxybenzyl)-3,5,6,7-tetrahydro-4H-cyclopenta[4,5]thieno[2,3-d]pyrimidin-4-one] came in with an IC50 of 224 µM. Also, in assay [2], the “SI (selectivity index, COX-1 IC50/COX-2 IC50)” value stood at 6.98; the IC50 amounted to 32.1 µM; the “selectivity of inhibition, COX-2 versus COX-1, in words” value is “mild selective inhibition against COX-2”.
The matching figures for `O=c1[nH]c(Cc2ccc(F)cc2)nc2sc3c(c12)CCC3` [Compound 6, 2-(4-Fluorobenzyl)-3,5,6,7-tetrahydro-4H-cyclopenta[4,5]thieno[2,3-d]pyrimidin-4-one]: 38.5 µM, 0.68, 56.4 µM and “mild selective inhibition against COX-2”.
The matching figures for `COc1ccc(-c2nc3sc4c(c3c(=O)[nH]2)CCC4)cc1` [Compound 8, 2-(4-Methoxyphenyl)-3,5,6,7-tetrahydro-4H-cyclopenta[4,5]thieno[2,3-d]pyrimidin-4-one]: 83.8 µM, 11.41, 7.3 µM and “mild selective inhibition against COX-2”.
The matching figures for `O=C(Nc1nc2sc3c(c2c(=O)[nH]1)CCC3)c1ccc(F)cc1` [Compound 9, 4-Fluoro-N-(4-oxo-3,5,6,7-tetrahydro-4H-cyclopenta[4,5]thieno[2,3-d]pyrimidin-2-yl)benzamide]: 69.2 µM, 1.26, 54.9 µM and “mild selective inhibition against COX-2”.
